One may read the IC50 as the concentration that gives 50% inhibition.

In patent US10538521B2, “Pyrimidine derivative having antimalarial activity” (CARNA BIOSCIENCES, INC., priority 2016, dated 2020) one finds IC50 data, which are given here for 23 compounds.

Each structure is given as a SMILES string.

Experiment [1] deals with FCR3 strain, a drug sensitive strain of Plasmodium falciparum. Description: In vitro antimalarial assay (p-LDH, Malstat), FCR3 strain. It is filed as cell-based. To be noted: P. falciparum FCR3 (drug sensitive), 72 h culture, p-LDH readout, read-out: Antimalarial activity (IC50 value), Strain FCR3. An excerpt: (§1) For the evaluation of the antimalarial activity of the compound of the present invention, K1 strain, a drug resistant strain of Plasmodium falciparum, and FCR3 strain, a drug sensitive strain thereof, which were generous gift from Professor Kiyoshi Kita of the Graduate School of Medicine and Faculty of Medicine, the University of Tokyo, were used to measure the in vitro antimalarial activity of the compound against those Plasmodium species according to the method established by Otoguro et al. (Otoguro, K., Kohana, A., Manabe, C., Ishiyama, A., Ui, H., Shiomi, K., Yamada, H. & Omura, S.: Potent antimalarial activity of polyether antibiotic, X-206. J. Antibiot., 54: 658-663, (2001)).
(§2) The parasites were grown based on a slightly modified method from the original method reported by Trager and Jensen (Trager, W. and Jensen, J.: Human malaria parasites in continuous culture, Science, 193: 673-677, (1976)), and those which were maintained and sub-cultured by the method were used. More specifically, in a culture dish, erythrocytes infected with the protozoa, which had been sub-cultured using a RPMI 1640 medium to which 10% human plasma had been added and fresh human erythrocytes, were diluted (hematocrit value: 2 to 5%, parasitaemia: 0.25 to 1%), and were cultured at 37° C. in a mixed gas of 3% O2-4% CO2-93% N2, and continuously cultured while changing the medium and adding fresh erythrocytes at 2- or 3-day intervals.
(§3) A drug susceptibility test was performed by modifying the method established by Desjardins et al. (Desjardins, R. E., Canfield, C. J., Haynes, D. E. and Chulay, J. D.: Quantitative assessment of antimalarial activity in vitro by a semiautomated microdilution technique. Antimicrob. Agents Chemother., 16: 710-718 (1979)). More specifically, 190 μL of a suspension of protozoa which had been precultured (hematocrit value: 2%, parasitaemia: 0.5 or 1%) and 10 μL of a solution of a test compound (5% DMSO solution) serially diluted so that the final concentration was 12.5 to 0.0001 μM were put in each well of a 96-well plate, and after mixing, the same was cultured for 72 hours in the above mixed gas.
(§4) For the measurement of the growth of protozoa, the method established by Makler (Makler, M. T., Rise, J. M., Williams, J. A., Bancroft, J. E., Piper, R. C., Gibbins, B. L. and Hinrichs, D. J.: Parasite lactate dehydrogenase as an Assay for Plasmodium falciparum drug sensitivity, Am. J. Med. Hyg., 48: 739-741 (1993)) was modified to colorimetrically determine parasite lactate dehydrogenase (p-LDH) using Malstat reagent (Flow Inc., USA).
(§5) More specifically, 72 hours after the culture, the 96-well plate was directly frozen at −20° C. for 18 hours and melted at 37° C. to hemolyze the protozoan-infected erythrocytes and destroy the protozoa to prepare a crude enzyme solution. 100 μL of Malstat reagent and 20 μL of the crude enzyme solution were added to and mixed in each well of another 96-well plate, and after reacting for 15 minutes at room temperature, 20 μL of a nitroblue tetrazolium 2 mg/mL phenazine ethosulfate 0.1 mg/mL=1:1 solution was added to the respective wells, and reaction was performed in dark conditions at room temperature for 2 hours.
(§6) The absorbance of the blue formazan product formed by the reaction was measured at a measurement wavelength of 655 nm by using a microplate reader (Labsystems, Finland) to colorimetrically determine the growth of the protozoa. The 50% growth inhibitory concentration for the protozoa of the compound (IC50 value) was determined based on the concentration-response curve of the compound.

For experiment [2], the system named is K1 strain, a drug resistant strain of Plasmodium falciparum. Description: In vitro antimalarial assay (p-LDH, Malstat), K1 strain. To be noted: P. falciparum K1 (drug resistant), 72 h culture, p-LDH readout, read-out: Antimalarial activity (IC50 value), Strain K1. It is filed as cell-based.
Excerpt: as §1, §2, §3, §4, §5, §6

On to `CC(C)Oc1ccc(Nc2nc(Nc3ccn4ccnc4c3)cc(N3CCCCC3)n2)cn1` [Example 55, N4-(Imidazo[1,2-a]pyridin-7-yl)-N2-(6-isopropoxypyridin-3-yl)-6-(piperidin-1-yl) pyrimidine-2,4-diamine], for which the concentration for half-maximal inhibition (IC50) in experiment [1] lay in the range of 0.1 to 1 µM; in experiment [2], 1 to 10 µM.

Turning to `CCOc1cc(Nc2ccn3ccnc3c2)nc(Nc2ccc(OC(C)C)nc2)n1` [Example 57, 6-Ethoxy-N4-(Imidazo[1,2-a]pyridin-7-yl)-N2-(6-isopropoxypyridin-3-yl)pyrimidine-2,4-diamine], the results for the IC50 in experiment [1] and in experiment [2] were 0.1 to 1 µM and 1 to 10 µM, respectively.

Take `CCc1ccnc(Nc2nc(Nc3ccn4ccnc4c3)cc(N3CCC(C)CC3)n2)c1` [Example 98, N2-(4-ethylpyridin-2-yl)-N4-(imidazo[1,2-a]pyridin-7-yl)-6-(4-methylpiperidin-1-yl)pyrimidine-2,4-diamine]: the half-inhibitory concentration (IC50) in experiment [1] and in experiment [2] was 0.1 to 1 µM each time.

As to `CC(C)(C)c1ccnc(Nc2nc(Nc3ccn4ccnc4c3)cc(N3CCCCC3)n2)c1` [Example 72, N2-(4-(tert-butyl)pyridin-2-yl)-N4-(imidazo[1,2-a]pyridin-7-yl)-6-(piperidin-1-yl)pyrimidine-2,4-diamine], the concentration for half-maximal inhibition (IC50) in experiment [1] was in the range of 0.1 to 1 µM; in experiment [2] it was 1 to 10 µM.

On to `Cc1cc(C)nc(Nc2nc(Nc3ccn4ccnc4c3)cc(N3CCN(C)[C@@H](C)C3)n2)c1` [Example 45, (S)-6-(3,4-dimethylpiperazin-1-yl)-N2-(4,6-dimethylpyridin-2-yl)-N4-(imidazo[1,2-a]pyridin-7-yl)pyrimidine-2,4-diamine], for which the IC50 in experiment [1] is under 0.1 µM; in experiment [2], 1 to 10 µM.

Take `CCCCc1cccc(Nc2nc(Nc3ccn4ccnc4c3)cc(N3CC(C)(C)C3)n2)n1` [Example 180, N2-(6-butylpyridin-2-yl)-6-(3,3-dimethylazetidin-1-yl)-N4-(imidazo[1,2-a]pyridin-7-yl) pyrimidine-2,4-diamine]: the IC50 in experiment [1] and in experiment [2] was under 0.1 µM each time.

For the compound `Cc1cc(C)nc(Nc2nc(Nc3ccn4ccnc4c3)cc(N3CCN(C)CC3)n2)c1` [Example 30, N2-(4,6-dimethylpyridin-2-yl)-N4-(imidazo[1,2-a]pyridin-7-yl)-6-(4-methylpiperazin-1-yl) pyrimidine-2,4-diamine], the 50% inhibitory concentration (IC50) in experiment [1] and in experiment [2] was under 0.1 µM in each case.

Take `CCc1ccnc(Nc2nc(Nc3ccn4ccnc4c3)cc(N3CCC(N4CCOCC4)CC3)n2)c1` [Example 112, N2-(4-ethylpyridin-2-yl)-N4-(imidazo[1,2-a]pyridin-7-yl)-6-(4-morpholinopiperidin-1-yl)pyrimidine-2,4-diamine]: the concentration for half-maximal inhibition (IC50) in experiment [1] and in experiment [2] was under 0.1 µM throughout.

`Cc1cccnc1Nc1nc(Nc2ccn3ccnc3c2)cc(N2CCOCC2)n1` [Example 9, N4-(Imidazo[1,2-a]pyridin-7-yl)-N2-(3-methylpyridin-2-yl)-6-morpholinopyrimidine-2,4-diamine]: the IC50 is under 0.1 µM in experiment [1] and 0.1 to 1 µM in experiment [2].

Take `CCCc1cccc(Nc2nc(Nc3ccn4ccnc4c3)cc(N3CCOCC3)n2)n1` [Example 108, N4-(imidazo[1,2-a]pyridin-7-yl)-6-morpholino-N2-(6-propylpyridin-2-yl)pyrimidine-2,4-diamine]: the half-maximal inhibitory concentration (IC50) was under 0.1 µM in experiment [1] and 0.1 to 1 µM in experiment [2].

For the compound `Cc1cc(C)nc(Nc2nc(Nc3ccn4ccnc4c3)cc(N3CCC4(CCOCC4)C3)n2)c1` [Example 175, N2-(4,6-dimethylpyridin-2-yl)-N4-(imidazo[1,2-a]pyridin-7-yl)-6-(8-oxa-2-azaspiro[4.5]decan-2-yl)pyrimidine-2,4-diamine], the IC50 in experiment [1] and in experiment [2] was under 0.1 µM throughout.

As to `CCOc1ccc(Nc2nc(Nc3ccn4ccnc4c3)cc(N3CCCCC3)n2)cn1` [Example 51, N2-(6-ethoxypyridin-3-yl)-N4-(imidazo[1,2-a]pyridin-7-yl)-6-(piperidin-1-yl)pyrimidine-2,4-diamine], the IC50 was 0.1 to 1 µM in experiment [1] and 1 to 10 µM in experiment [2].

Consider `Cc1cc(C)nc(Nc2nc(NCc3ccccc3)cc(Nc3ccn4ccnc4c3)n2)c1` [Example 196, N4-benzyl-N2-(4,6-dimethylpyridin-2-yl)-N6-(imidazo[1,2-a]pyridin-7-yl)pyrimidine-2,4,6-triamine], for which the IC50 in experiment [1] and in experiment [2] was under 0.1 µM throughout.

As to `COCCc1cccc(Nc2nc(Nc3ccn4ccnc4c3)cc(N3CCCC3)n2)n1` [Example 159, N4-(imidazo[1,2-a]pyridin-7-yl)-N2-[6-(2-methoxyethyl)pyridin-2-yl]-6-(pyrrolidin-1-yl)pyrimidine-2,4-diamine], the IC50 in experiment [1] and in experiment [2] was under 0.1 µM each time.

For `Cc1cc(C)nc(Nc2nc(Nc3ccn4ccnc4c3)cc(NN3CCCCC3)n2)c1` [Example 198, N2-(4,6-dimethylpyridin-2-yl)-N4-(imidazo[1,2-a]pyridin-7-yl)-N6-(piperidin-1-yl)pyrimidine-2,4,6-triamine], the half-maximal inhibitory concentration (IC50) in experiment [1] is under 0.1 µM; in experiment [2], 0.1 to 1 µM.

Turning to `Fc1ccnc(Nc2nc(Nc3ccn4ccnc4c3)cc(N3CCOCC3)n2)c1` [Example 21, N2-(4-Fluoropyridin-2-yl)-N4-(imidazo[1,2-a]pyridin-7-yl)-6-morpholinopyrimidine-2,4-diamine], the IC50 in experiment [1] and in experiment [2] was 0.1 to 1 µM throughout.

For the compound `CCc1cccc(Nc2nc(Nc3ccn4ccnc4c3)cc(N3CCCCC3)n2)n1` [Example 95, N2-(6-ethylpyridin-2-yl)-N4-(imidazo[1,2-a]pyridin-7-yl)-6-(piperidin-1-yl)pyrimidine-2,4-diamine], the IC50 in experiment [1] and in experiment [2] was under 0.1 µM each time.

Regarding `CCc1cccc(Nc2nc(Nc3ccn4ccnc4c3)cc(N3CCOCC3)n2)n1` [Example 107, N2-(6-ethylpyridin-2-yl)-N4-(imidazo[1,2-a]pyridin-7-yl)-6-morpholinopyrimidine-2,4-diamine], the IC50 in experiment [1] and in experiment [2] was under 0.1 µM in each case.

Regarding `Cc1cc(C)nc(Nc2nc(Nc3ccccc3)cc(Nc3ccn4ccnc4c3)n2)c1` [Example 195, N2-(4,6-dimethylpyridin-2-yl)-N4-(imidazo[1,2-a]pyridin-7-yl)-N6-phenylpyrimidine-2,4,6-triamine], the concentration for half-maximal inhibition (IC50) in experiment [1] and in experiment [2] was 0.1 to 1 µM in each case.

In the case of `Cc1ccnc(Nc2nc(Nc3ccn4ccnc4c3)cc(N3CCN(C)CC3)n2)c1` [Example 25, N4-(imidazo[1,2-a]pyridin-7-yl)-6-(4-methylpiperazin-l-yl)-N 2-(4-methylpyridin-2-yl)pyrimidine-2,4-diamine], the IC50 in experiment [1] and in experiment [2] was 1 to 10 µM throughout.

Turning to `CCCOCc1cccc(Nc2nc(Nc3ccn4ccnc4c3)cc(N3CCCC3)n2)n1` [Example 164, N4-(imidazo[1,2-a]pyridin-7-yl)-N2-[6-(propoxymethyl)pyridin-2-yl]-6-(pyrrolidin-1-yl) pyrimidine-2,4-diamine], the IC50 in experiment [1] was in the range of 0.1 to 1 µM; in experiment [2] it was 1 to 10 µM.

Consider `Cc1ccc(Nc2nc(Nc3ccn4ccnc4c3)cc(N3CCOCC3)n2)nc1C` [Example 87, N2-(5,6-dimethylpyridin-2-yl)-N4-(imidazo[1,2-a]pyridin-7-yl)-6-morpholinopyrimidine-2,4-diamine], for which the IC50 in experiment [1] and in experiment [2] was under 0.1 µM throughout.

Consider `CN(C)CCc1cccc(Nc2nc(Nc3ccn4ccnc4c3)cc(N3CCCC3)n2)n1` [Example 172, N2-{6-[2-(dimethylamino)ethyl]pyridin-2-yl}-N4-(imidazo[1,2-a]pyridin-7-yl)-6-(pyrrolidin-1-yl)pyrimidine-2,4-diamine], for which the IC50 in experiment [1] is under 0.1 µM; in experiment [2], 0.1 to 1 µM.
